Reference: ChEMBL document CHEMBL2062394, “Azide-alkyne cycloaddition en route to novel 1H-1,2,3-triazole tethered isatin conjugates with in vitro cytotoxic evaluation” (Eur J Med Chem, 2012)

What was measured:
PC-3 [1] = experiment: Growth inhibition of human PC3 cells at 1 uM after 48 hrs by SRB assay; assay type: functional; details: PC-3, 48 h, read-out: GI
A549 [2] = experiment: Growth inhibition of human A549 cells at 1 uM after 48 hrs by SRB assay; assay type: functional; details: A549, 48 h, read-out: GI
Caco-2 [3] = experiment: Growth inhibition of human Caco2 cells after 48 hrs by SRB assay; assay type: functional, cell-based; details: for IC50: Caco-2, 48 h
A549 [4] = experiment: Growth inhibition of human A549 cells at 100 uM after 48 hrs by SRB assay; assay type: functional; details: A549, 48 h, read-out: GI
PC-3 [5] = experiment: Growth inhibition of human PC3 cells after 48 hrs by SRB assay; assay type: functional, cell-based; details: for IC50: PC-3, 48 h
Caco-2 [6] = experiment: Growth inhibition of human Caco2 cells at 10 uM after 48 hrs by SRB assay; assay type: functional; details: Caco-2, 48 h, read-out: GI
THP-1 [7] = experiment: Ratio of 5-fluorouracil IC50 to compound IC50 for human THP1 cells; assay type: functional
A549 [8] = experiment: Growth inhibition of human A549 cells at 10 uM after 48 hrs by SRB assay; assay type: functional; details: A549, 48 h, read-out: GI
PC-3 [9] = experiment: Growth inhibition of human PC3 cells at 100 uM after 48 hrs by SRB assay; assay type: functional; details: PC-3, 48 h, read-out: GI
THP-1 [10] = experiment: Growth inhibition of human THP1 cells at 50 uM after 48 hrs by SRB assay; assay type: functional; details: THP-1, 48 h, read-out: GI
THP-1 [11] = experiment: Growth inhibition of human THP1 cells after 48 hrs by SRB assay; assay type: functional, cell-based; details: for IC50: THP-1, 48 h
THP-1 [12] = experiment: Growth inhibition of human THP1 cells at 10 uM after 48 hrs by SRB assay; assay type: functional; details: THP-1, 48 h, read-out: GI
A549 [13] = experiment: Growth inhibition of human A549 cells at 50 uM after 48 hrs by SRB assay; assay type: functional; details: A549, 48 h, read-out: GI
Caco-2 [14] = experiment: Growth inhibition of human Caco2 cells at 50 uM after 48 hrs by SRB assay; assay type: functional; details: Caco-2, 48 h, read-out: GI
THP-1 [15] = experiment: Growth inhibition of human THP1 cells at 100 uM after 48 hrs by SRB assay; assay type: functional; details: THP-1, 48 h, read-out: GI
A549 [16] = experiment: Growth inhibition of human A549 cells after 48 hrs by SRB assay; assay type: functional, cell-based; details: for IC50: A549, 48 h
PC-3 [17] = experiment: Growth inhibition of human PC3 cells at 10 uM after 48 hrs by SRB assay; assay type: functional; details: PC-3, 48 h, read-out: GI
Caco-2 [18] = experiment: Growth inhibition of human Caco2 cells at 100 uM after 48 hrs by SRB assay; assay type: functional; details: Caco-2, 48 h, read-out: GI
PC-3 [19] = experiment: Growth inhibition of human PC3 cells at 50 uM after 48 hrs by SRB assay; assay type: functional; details: PC-3, 48 h, read-out: GI
Caco-2 [20] = experiment: Growth inhibition of human Caco2 cells at 20 uM after 48 hrs by SRB assay; assay type: functional; details: Caco-2, 48 h, read-out: GI
THP-1 [21] = experiment: Growth inhibition of human THP1 cells at 20 uM after 48 hrs by SRB assay; assay type: functional; details: THP-1, 48 h, read-out: GI

For `CO[C@@]12[C@H](COC(N)=O)C3=C(C(=O)C(C)=C(N)C3=O)N1C[C@@H]1N[C@@H]12` [MITOMYCIN], the inhibition of growth at 1 µM (PC-3 [1]) was 60%.
For `CC(=O)O[C@H]1C(=O)[C@@]2(C)[C@H]([C@H](OC(=O)c3ccccc3)[C@]3(O)C[C@H](OC(=O)[C@H](O)[C@@H](NC(=O)c4ccccc4)c4ccccc4)C(C)=C1C3(C)C)[C@]1(OC(C)=O)CO[C@@H]1C[C@@H]2O` [PACLITAXEL], the inhibition of growth at 1 µM (A549 [2]) was 69%.
For `Cc1ccc2c(c1)C(=O)C(=O)N2Cc1cn(CCN2C(=O)C(=O)c3cc(Cl)ccc32)nn1`, the “growth inhibition (GI)” value (Caco-2 [3]) was “Dose-dependent effect”, the IC50 (Caco-2 [3]) was 44.9 µM and the inhibition of growth at 100 µM (A549 [4]) was 98%. The “growth inhibition (GI)” value (PC-3 [5]) was “Dose-dependent effect”, the IC50 (PC-3 [5]) was 32.6 µM and the inhibition of growth at 10 µM (Caco-2 [6]) was 39%. The “Ratio IC50” value (THP-1 [7]) was 2, the inhibition of growth at 10 µM (A549 [8]) was 81% and the inhibition of growth at 100 µM (PC-3 [9]) was 70%. The inhibition of growth at 50 µM (THP-1 [10]) was 91%, the “growth inhibition (GI)” value (THP-1 [11]) was “Dose-dependent effect” and the IC50 (THP-1 [11]) was less than 1 µM. The inhibition of growth at 10 µM (THP-1 [12]) was 71%, the inhibition of growth at 50 µM (A549 [13]) was 95% and the inhibition of growth at 50 µM (Caco-2 [14]) was 52%. For the same molecule, the inhibition of growth at 100 µM (THP-1 [15]) was 92%, the “growth inhibition (GI)” value (A549 [16]) was “Dose-dependent effect” and the IC50 (A549 [16]) was less than 1 µM. It also gave an inhibition of growth at 10 µM (PC-3 [17]) of 36%, an inhibition of growth at 100 µM (Caco-2 [18]) of 56% and an inhibition of growth at 50 µM (PC-3 [19]) of 55%.
In the case of `O=C1C(=O)N(CCn2cc(CN3C(=O)C(=O)c4cc(Cl)ccc43)nn2)c2ccccc21`, the “growth inhibition (GI)” value (Caco-2 [3]) is reported as “Dose-dependent effect”, the IC50 (Caco-2 [3]) is reported as greater than 100 µM and the inhibition of growth at 100 µM (A549 [4]) is reported as 100%. The “growth inhibition (GI)” value (PC-3 [5]) was “Dose-dependent effect”, the IC50 (PC-3 [5]) was less than 1 µM and the inhibition of growth at 10 µM (Caco-2 [6]) was 6%. For the same molecule, the “Ratio IC50” value (THP-1 [7]) was 2, the inhibition of growth at 10 µM (A549 [8]) was 94% and the inhibition of growth at 100 µM (PC-3 [9]) was 100%. For the same molecule, the inhibition of growth at 50 µM (THP-1 [10]) was 90%, the “growth inhibition (GI)” value (THP-1 [11]) was “Dose-dependent effect” and the IC50 (THP-1 [11]) was less than 1 µM. For the same molecule, the inhibition of growth at 10 µM (THP-1 [12]) was 80%, the inhibition of growth at 50 µM (A549 [13]) was 98% and the inhibition of growth at 50 µM (Caco-2 [14]) was 24%. The inhibition of growth at 100 µM (THP-1 [15]) was 100%, the “growth inhibition (GI)” value (A549 [16]) was “Dose-dependent effect” and the IC50 (A549 [16]) was less than 1 µM. It also gave an inhibition of growth at 10 µM (PC-3 [17]) of 99%, an inhibition of growth at 100 µM (Caco-2 [18]) of 38% and an inhibition of growth at 50 µM (PC-3 [19]) of 100%.
`O=c1[nH]cc(F)c(=O)[nH]1` [FLUOROURACIL] showed an inhibition of growth at 20 µM (Caco-2 [20]) of 68% and an inhibition of growth at 20 µM (THP-1 [21]) of 70%.
For `Cc1ccc2c(c1)C(=O)C(=O)N2Cc1cn(CCN2C(=O)C(=O)c3ccccc32)nn1`, the “growth inhibition (GI)” value (Caco-2 [3]) was “Dose-dependent effect”, the IC50 (Caco-2 [3]) was greater than 100 µM and the inhibition of growth at 100 µM (A549 [4]) was 100%. The “growth inhibition (GI)” value (PC-3 [5]) was “Dose-dependent effect”, the IC50 (PC-3 [5]) was 3.03 µM and the inhibition of growth at 10 µM (Caco-2 [6]) was 0%. The “Ratio IC50” value (THP-1 [7]) was 2, the inhibition of growth at 10 µM (A549 [8]) was 35% and the inhibition of growth at 100 µM (PC-3 [9]) was 100%. For the same molecule, the inhibition of growth at 50 µM (THP-1 [10]) was 100%, the “growth inhibition (GI)” value (THP-1 [11]) was “Dose-dependent effect” and the IC50 (THP-1 [11]) was less than 1 µM. For the same molecule, the inhibition of growth at 10 µM (THP-1 [12]) was 89%, the inhibition of growth at 50 µM (A549 [13]) was 99% and the inhibition of growth at 50 µM (Caco-2 [14]) was 0%. For the same molecule, the inhibition of growth at 100 µM (THP-1 [15]) was 100%, the “growth inhibition (GI)” value (A549 [16]) was “Dose-dependent effect” and the IC50 (A549 [16]) was 18.4 µM. It also gave an inhibition of growth at 10 µM (PC-3 [17]) of 63%, an inhibition of growth at 100 µM (Caco-2 [18]) of 17% and an inhibition of growth at 50 µM (PC-3 [19]) of 100%.
With `O=C1C(=O)N(CCn2cc(CN3C(=O)C(=O)c4ccccc43)nn2)c2ccccc21` the “growth inhibition (GI)” value (Caco-2 [3]) was “Dose-dependent effect”, the IC50 (Caco-2 [3]) was greater than 100 µM and the inhibition of growth at 100 µM (A549 [4]) was 99%. The “growth inhibition (GI)” value (PC-3 [5]) was “Dose-dependent effect”, the IC50 (PC-3 [5]) was less than 1 µM and the inhibition of growth at 10 µM (Caco-2 [6]) was 9%. For the same molecule, the “Ratio IC50” value (THP-1 [7]) was 2, the inhibition of growth at 10 µM (A549 [8]) was 96% and the inhibition of growth at 100 µM (PC-3 [9]) was 100%. The inhibition of growth at 50 µM (THP-1 [10]) was 100%, the “growth inhibition (GI)” value (THP-1 [11]) was “Dose-dependent effect” and the IC50 (THP-1 [11]) was less than 1 µM. It also gave an inhibition of growth at 10 µM (THP-1 [12]) of 100%, an inhibition of growth at 50 µM (A549 [13]) of 98% and an inhibition of growth at 50 µM (Caco-2 [14]) of 20%. The inhibition of growth at 100 µM (THP-1 [15]) was 100%, the “growth inhibition (GI)” value (A549 [16]) was “Dose-dependent effect” and the IC50 (A549 [16]) was less than 1 µM. The inhibition of growth at 10 µM (PC-3 [17]) was 99%, the inhibition of growth at 100 µM (Caco-2 [18]) was 36% and the inhibition of growth at 50 µM (PC-3 [19]) was 100%.
